# Measurements reported in patent publication US5393743A, “Erythromycin derivatives” (Abbott Laboratories, priority 1993, dated 1995).
# Read-outs that look alike come from different tables or passages of the source.
# Experiments:
# [1] = system: Mycobacterium smegmatis ATCC 114; experiment: In vitro antibacterial activity, agar dilution MIC; type: cell-based; settings: Mycolicibacterium smegmatis, ATCC114, BHI agar, 35°-37° C., 20 to 24 hours
# [2] = system: Enterococcus faecium ATCC 8043; experiment: In vitro antibacterial activity, agar dilution MIC; type: cell-based
# Description: (§1) Representative compounds of the present invention were assayed in vitro for antibacterial activity as follows: Twelve petri dishes containing successive aqueous dilutions of the test compound mixed with 10 mL of sterilized Brain Heart Infusion (BHI) agar (Difco 0418-01-5) were prepared. Each plate was inoculated with 1:100 (or 1:10 for slow-growing strains, such as Micrococcus and Streptococcus) dilutions of up to 32 different microorganisms, using a Steers replicator block. The inoculated plates were incubated 35°-37° C. for 20 to 24 hours. In addition, a control plate, using BHI agar containing no test compound, was prepared and incubated at the beginning and end of each test.
# (§2) An additional plate containing a compound having known susceptibility patterns for the organisms being tested and belonging to the same antibiotic class as the test compound was also prepared and incubated as a further control, as well as to provide test-to-test comparability. Erythromycin A was used for this purpose.
# (§3) After incubation, each disk was read. The minimum inhibitory concentration (MIC) was defined as the lowest concentration of drug yielding no growth, a slight haze, or sparsely isolated colonies on the inoculum spot as compared to the growth control.
# [3] = system: Streptococcus pyogenes EES61; experiment: In vitro antibacterial activity, agar dilution MIC; type: cell-based
# Description: as §1, §2, §3
# [4] = system: Klebsiella pneumoniae ATCC 8045; experiment: In vitro antibacterial activity, agar dilution MIC; type: cell-based; settings: Klebsiella pneumoniae ATCC 8045, BHI agar, 35°-37° C., 20 to 24 hours
# Description: as §1, §2, §3
# [5] = system: Pseudomonas aeruginosa K799/WT; experiment: In vitro antibacterial activity, agar dilution MIC; type: cell-based; settings: Pseudomonas aeruginosa K799/WT, BHI agar, 35°-37° C., 20 to 24 hours
# Description: as §1, §2, §3
# Escherichia coli KNK 437 = experiment: In vitro antibacterial activity, agar dilution MIC; type: cell-based; settings: Escherichia coli KNK 437, BHI agar, 35°-37° C., 20 to 24 hours
# Description: as §1, §2, §3
# Escherichia coli H560 = experiment: In vitro antibacterial activity, agar dilution MIC; type: cell-based; settings: Escherichia coli H560, BHI agar, 35°-37° C., 20 to 24 hours
# Description: as §1, §2, §3
# [6] = system: Pseudomonas aeruginosa 5263; experiment: In vitro antibacterial activity, agar dilution MIC; type: cell-based; settings: Pseudomonas aeruginosa 5263, BHI agar, 35°-37° C., 20 to 24 hours
# Description: as §1, §2, §3
# [7] = system: Streptococcus agalactiae 508; experiment: In vitro antibacterial activity, agar dilution MIC; type: cell-based
# Description: as §1, §2, §3
# [8] = system: Staphylococcus aureus NCTC 10649; experiment: In vitro antibacterial activity, agar dilution MIC; type: cell-based
# Description: as §1, §2, §3
# [9] = system: Staphylococcus aureus CMX 642a; experiment: In vitro antibacterial activity, agar dilution MIC; type: cell-based
# Description: as §1, §2, §3
# [10] = system: Staphylococcus aureus ATCC 6538P; experiment: In vitro antibacterial activity, agar dilution MIC; type: cell-based
# Description: as §1, §2, §3
# Escherichia coli Juhl = experiment: In vitro antibacterial activity, agar dilution MIC; type: cell-based; settings: Escherichia coli Juhl, BHI agar, 35°-37° C., 20 to 24 hours
# Description: as §1, §2, §3
# [11] = system: Pseudomonas aeruginosa 2862; experiment: In vitro antibacterial activity, agar dilution MIC; type: cell-based; settings: Pseudomonas aeruginosa 2862, BHI agar, 35°-37° C., 20 to 24 hours
# Description: as §1, §2, §3
# Micrococcus luteus 4698 = experiment: In vitro antibacterial activity, agar dilution MIC; type: cell-based
# Description: as §1, §2, §3
# [12] = system: Streptococcus pyogenes 2548 induc; experiment: In vitro antibacterial activity, agar dilution MIC; type: cell-based
# Description: as §1, §2, §3
# [13] = system: Providencia stuartii CMX 640; experiment: In vitro antibacterial activity, agar dilution MIC; type: cell-based; settings: Providencia stuartii CMX 640, BHI agar, 35°-37° C., 20 to 24 hours
# Description: as §1, §2, §3
# [14] = system: Staphylococcus aureus 1775 Cipro R; experiment: In vitro antibacterial activity, agar dilution MIC; type: cell-based; settings: Staphylococcus aureus 1775 Cipro R, BHI agar, 35°-37° C., 20 to 24 hours
# Description: as §1, §2, §3
# [15] = system: Staphylococcus aureus CMX 553; experiment: In vitro antibacterial activity, agar dilution MIC; type: cell-based
# Description: as §1, §2, §3
# Pseudomonas cepacia 2961 = experiment: In vitro antibacterial activity, agar dilution MIC; type: cell-based; settings: Pseudomonas cepacia 2961, BHI agar, 35°-37° C., 20 to 24 hours
# Description: as §1, §2, §3
# [16] = system: Streptococcus pyogenes 930 const; experiment: In vitro antibacterial activity, agar dilution MIC; type: cell-based; settings: Streptococcus pyogenes 930 const, BHI agar, 35°-37° C., 20 to 24 hours
# Description: as §1, §2, §3
# [17] = system: Enterobacter aerogenes ATCC 13048; experiment: In vitro antibacterial activity, agar dilution MIC; type: cell-based; settings: Enterobacter aerogenes ATCC 13048, BHI agar, 35°-37° C., 20 to 24 hours
# Description: as §1, §2, §3
# [18] = system: Acinetobacter calcoaceticus CMX 669; experiment: In vitro antibacterial activity, agar dilution MIC; type: cell-based; settings: Acinetobacter calcoaceticus CMX 669, BHI agar, 35°-37° C., 20 to 24 hours
# Description: as §1, §2, §3
# [19] = system: Staphylococcus epidermidis 3519; experiment: In vitro antibacterial activity, agar dilution MIC; type: cell-based
# Description: as §1, §2, §3
# [20] = system: Streptococcus bovis A5169; experiment: In vitro antibacterial activity, agar dilution MIC; type: cell-based
# Description: as §1, §2, §3
# [21] = system: Pseudomonas aeruginosa A5007; experiment: In vitro antibacterial activity, agar dilution MIC; type: cell-based; settings: Pseudomonas aeruginosa A5007, BHI agar, 35°-37° C., 20 to 24 hours
# Description: as §1, §2, §3
# Escherichia coli DC-2 = experiment: In vitro antibacterial activity, agar dilution MIC; type: cell-based; settings: Escherichia coli DC-2, BHI agar, 35°-37° C., 20 to 24 hours
# Description: as §1, §2, §3
# [22] = system: Staphylococcus aureus A5278; experiment: In vitro antibacterial activity, agar dilution MIC; type: cell-based; settings: Staphylococcus aureus A5278, BHI agar, 35°-37° C., 20 to 24 hours
# Description: as §1, §2, §3
# [23] = system: Staphylococcus aureus A5177; experiment: In vitro antibacterial activity, agar dilution MIC; type: cell-based; settings: Staphylococcus aureus A5177, BHI agar, 35°-37° C., 20 to 24 hours
# Description: as §1, §2, §3
# [24] = system: Pseudomonas aeruginosa BMH10; experiment: In vitro antibacterial activity, agar dilution MIC; type: cell-based; settings: Pseudomonas aeruginosa BMH10, BHI agar, 35°-37° C., 20 to 24 hours
# Description: as §1, §2, §3
# [25] = system: Nocardia asteroides ATCC 9970; experiment: microbe, parasite or virus in culture; settings: ATCC9970
# Description: as §1, §2, §3
# Escherichia coli SS = experiment: microbe, parasite or virus in culture
# Description: as §1, §2, §3
# [26] = system: Micrococcus luteus ATCC 9341; experiment: microbe, parasite or virus in culture
# Description: as §1, §2, §3
# Candida albicans CCH 442 = experiment: microbe, parasite or virus in culture; settings: CCH442
# Description: as §1, §2, §3
# [27] = system: Pseudomonas aeruginosa K799/61; experiment: In vitro antibacterial activity, agar dilution MIC; type: cell-based; settings: BHI agar, 35°-37° C., 20 to 24 hours
compound,measurement,setting,value
"CC[C@H]1OC(=O)[C@H](C)[C@@H](O[C@H]2C[C@](C)(F)[C@@H](OC)[C@H](C)O2)[C@H](C)[C@@H](O[C@@H]2O[C@H](C)C[C@H](N(C)C)[C@H]2O)[C@](C)(O)C[C@@H](C)C(=O)[C@H](C)[C@@H](O)[C@]1(C)O [Example 9, (3""s)--3""-Desmethoxy-3""-fluoro-4""-O-methylerythromycin A]",MIC,[1],12.5 µg/mL
same,MIC,"[2]; Enterococcus faecium, ATCC8043",0.39 µg/mL
same,MIC,"[3]; Streptococcus pyogenes, EES61",0.39 µg/mL
same,MIC,"[4]; ATCC8045, read-out: MIC",> 100 µg/mL
same,MIC,[5]; read-out: MIC,> 100 µg/mL
same,MIC,"Escherichia coli KNK 437; KNK437, read-out: MIC",> 100 µg/mL
same,MIC,Escherichia coli H560; read-out: MIC,> 100 µg/mL
same,MIC,[6]; read-out: MIC,> 100 µg/mL
same,MIC,"[7]; Streptococcus agalactiae, 508",0.39 µg/mL
same,MIC,"[8]; Staphylococcus aureus, NCTC10649",1.56 µg/mL
same,MIC,"[9]; Staphylococcus aureus, CMX642A",1.56 µg/mL
same,MIC,"[10]; Staphylococcus aureus, ATCC6538P",1.56 µg/mL
same,MIC,Escherichia coli Juhl; read-out: MIC,> 100 µg/mL
same,MIC,[11]; read-out: MIC,> 100 µg/mL
same,MIC,"Micrococcus luteus 4698; Micrococcus luteus, 4698",0.39 µg/mL
same,MIC,"[12]; Streptococcus pyogenes, 2548INDUC",3.1 µg/mL
same,MIC,"[13]; CMX640, read-out: MIC",> 100 µg/mL
same,MIC,"[14]; 1775CIPROR, read-out: MIC",> 100 µg/mL
same,MIC,"[15]; Staphylococcus aureus, CMX553",1.56 µg/mL
same,MIC,"Pseudomonas cepacia 2961; Burkholderia cepacia, read-out: MIC",> 100 µg/mL
same,MIC,[16]; read-out: MIC,> 100 µg/mL
same,MIC,"[17]; Klebsiella aerogenes, ATCC13048, read-out: MIC",> 100 µg/mL
same,MIC,"[18]; CMX669, read-out: MIC",> 100 µg/mL
same,MIC,"[19]; Staphylococcus epidermidis, 3519",1.56 µg/mL
same,MIC,"[20]; Streptococcus equinus, A5169",0.2 µg/mL
same,MIC,[21]; read-out: MIC,> 100 µg/mL
same,MIC,"Escherichia coli DC-2; DC2, read-out: MIC",> 100 µg/mL
same,MIC,[22]; read-out: MIC,> 100 µg/mL
same,MIC,[23]; read-out: MIC,12.5 µg/mL
same,MIC,[24]; read-out: MIC,> 100 µg/mL
same,MIC,[25],0.2 µg/mL
same,MIC,Escherichia coli SS; Escherichia coli,1.56 µg/mL
same,MIC,"[26]; Micrococcus luteus, ATCC9341",0.2 µg/mL
same,MIC,Candida albicans CCH 442,> 100 µg/mL
same,MIC,[27]; read-out: MIC,50 µg/mL
"(3""S)-11-O,12-O-carbonyl-3""-fluoro-3""-desmethoxy-4""-O-methylerythromycin A [Example 15]",MIC,"[2]; Enterococcus faecium ATCC 8043, BHI agar, 35°-37° C., 20 to 24 hours",0.05 µg/mL
same,MIC,"[3]; Streptococcus pyogenes EES61, BHI agar, 35°-37° C., 20 to 24 hours",0.05 µg/mL
same,MIC,[4],100 µg/mL
same,MIC,[5],100 µg/mL
same,MIC,Escherichia coli KNK 437,100 µg/mL
same,MIC,Escherichia coli H560,50 µg/mL
same,MIC,[6],> 100 µg/mL
same,MIC,"[7]; Streptococcus agalactiae 508, BHI agar, 35°-37° C., 20 to 24 hours",0.05 µg/mL
same,MIC,"[8]; Staphylococcus aureus NCTC 10649, BHI agar, 35°-37° C., 20 to 24 hours",0.39 µg/mL
same,MIC,"[9]; Staphylococcus aureus CMX 642a, BHI agar, 35°-37° C., 20 to 24 hours",0.39 µg/mL
same,MIC,"[10]; Staphylococcus aureus ATCC 6538P, BHI agar, 35°-37° C., 20 to 24 hours",0.39 µg/mL
same,MIC,Escherichia coli Juhl,100 µg/mL
same,MIC,[11],> 100 µg/mL
same,MIC,"Micrococcus luteus 4698; Micrococcus luteus 4698, BHI agar, 35°-37° C., 20 to 24 hours",0.1 µg/mL
same,MIC,"[12]; Streptococcus pyogenes 2548 induc, BHI agar, 35°-37° C., 20 to 24 hours",0.39 µg/mL
same,MIC,[13],> 100 µg/mL
same,MIC,[14],> 100 µg/mL
same,MIC,"[15]; Staphylococcus aureus CMX 553, BHI agar, 35°-37° C., 20 to 24 hours",0.39 µg/mL
same,MIC,Pseudomonas cepacia 2961,25 µg/mL
same,MIC,[16],> 100 µg/mL
same,MIC,[17],> 100 µg/mL
same,MIC,[18],100 µg/mL
same,MIC,"[19]; Staphylococcus epidermidis 3519, BHI agar, 35°-37° C., 20 to 24 hours",0.39 µg/mL
same,MIC,"[20]; Streptococcus bovis A5169, BHI agar, 35°-37° C., 20 to 24 hours",0.01 µg/mL
same,MIC,[21],> 100 µg/mL
same,MIC,Escherichia coli DC-2,100 µg/mL
same,MIC,[22],> 100 µg/mL
same,MIC,[23],6.2 µg/mL
same,MIC,[24],> 100 µg/mL
same,MIC,"Escherichia coli SS; Escherichia coli SS, BHI agar, 35°-37° C., 20 to 24 hours",0.2 µg/mL
same,MIC,"[26]; Micrococcus luteus ATCC 9341, BHI agar, 35°-37° C., 20 to 24 hours",0.01 µg/mL
same,MIC,[27],3.1 µg/mL
